Read-outs that look alike come from different tables or passages of the source.
Legend:
[1] = system: K/1 = ras^K Transformed NRKE Cells; details: for Differential Index K/1: K/1 = ras^K transformed NRKE cells, compared with normal NRKE cells
[2] = system: H/1.2 = ras^H Transformed NRKE Cells; details: H/1.2 = ras^H transformed NRKE cells, compared with normal NRKE cells
[3] = system: N/4.2-NRKE transformed by the human ras^N gene; details: N/4.2 = ras^N transformed NRK cells, compared with normal NRKE cells
[4] = system: 3LL = Lewis Lung Carcinoma Cells; details: 3LL = Lewis lung carcinoma cells, compared with normal NRKE cells
[5] = system: human tumor cells in hollow fibers; assay: NCI Hollow Fiber Assay for preliminary in vivo testing; details: combined IP+SC score
Description: For these assays, human tumor cells are cultivated in polyvinylidene fluoride (PVDF) hollow fibers, and a sample of each cell line is implanted into each of two physiologic compartments (intraperitoneal and subcutaneous) in mice. Each test mouse receives a total of 6 fibers (3 intraperitoneally and 3 subcutaneously) representing 3 distinct cancer cells lines. Three mice are treated with potential antitumor compounds at each of 2 test doses by the intraperitoneal route using a QD×4 treatment schedule. Vehicle controls consist of 6 mice receiving the compound diluent only. The fiber cultures are collected on the day following the last day of treatment. To assess anticancer effects, viable cell mass is determined for each of the cell lines using a formazan dye (MTT) conversion assay. From this, the % T/C can be calculated using the average optical density of the compound treated samples divided by the average optical density of the vehicle controls. In addition, the net increase in cell mass can be determined for each sample as a sample of fiber cultures are assessed for viable cell mass on the day of implantation into mice. Thus, the cytostatic and cytocidal capacities of the test compound can be assessed.
This represents a total of 4 experiments since each experiment contains 3 cell lines. […]

Leukemia cell lines = assay: NCI in vitro anticancer screen (SRB), leukemia subpanel; details: 48 hours exposure; average percent growth over the cell lines
Description: (§1) Compounds chosen for the program are initially tested in an in vitro anticancer screen. A total of fifty-five human tumor cell lines, derived from nine cancer types (lung, colon, melanoma, renal, ovarian, brain, prostate, breast and leukemia), are used in this screen. The tumor cells are inoculated over a series of standard 96-well microtiter plates on day 0. These cells are then preincubated on the microtiter plates for 24 hours. The test compounds are added to the wells in five 10-fold dilutions starting from the highest soluble concentration. Each compound is tested against every cell line in the panel. The compounds are incubated for 48 hours with the tumor cell lines. At the termination of the assay, the cells are fixed in situ, washed, and dried. Sulforhodamine B (SRB), a pink anionic dye that binds to the basic amino acids of trichloroacetic acid-fixed cells, is added. The cells are washed again, and the remaining dye is a function of the adherent cell mass. The bound stain is solubilized and measured spectrophotometrically. The data are entered from automatic reading devices into a computer for subsequent storage and analysis.
(§2) The measured effect of each test compound on the cell lines is calculated according to one or the other of the following two expressions:
(§3) If (Mean ODtest−Mean ODtzero)□0, then PG=100×(Mean ODtest−Mean ODtzero)/(Mean ODctrl−Mean ODtzero);
(§4) If (Mean ODtest−Mean ODtzero)<0, then PG=100×(Mean ODtest−Mean ODtzero)/Meantzero;
(§5) First, a data sheet is provided which lists, for each cell line, the Mean ODtzero, the Mean ODctrl, the Mean ODtest for each of the five concentrations, the calculated PGs for each concentration, and the response parameters G150, TGI, and LC50.
(§6) Third, mean graphs at each of the principal response parameters (GI50, TGI, and LC50) are provided. […] Since the bar scale is logarithmic, a bar two units to the right implies the compound achieved the response parameter (e.g., GI50) for the cell line at a concentration 1/100 the mean concentration required over all cell lines, and thus the cell line is unusually sensitive to that compound. Bars extending to the left correspondingly imply sensitivity less than the mean. Thus, the mean graphs facilitate visual scanning of data for potential patterns of selectivity for particular cell lines or for particular subpanels with respect to a selected response parameter.

Melanoma cell lines = assay: NCI in vitro anticancer screen (SRB), melanoma subpanel; details: 48 hours exposure; average percent growth over the cell lines
Description: as §1, §2, §3, §4, §5, §6

CNS Cancer cell lines = assay: NCI in vitro anticancer screen (SRB), CNS cancer subpanel; details: 48 hours exposure; average percent growth over the cell lines
Description: as §1, §2, §3, §4, §5, §6

Colon Cancer cell lines = assay: NCI in vitro anticancer screen (SRB), colon cancer subpanel; details: 48 hours exposure; average percent growth over the cell lines
Description: as §1, §2, §3, §4

Renal Cancer cell lines = assay: NCI in vitro anticancer screen (SRB), renal cancer subpanel; details: 48 hours exposure; average percent growth over the cell lines
Breast Cancer cell lines = assay: NCI in vitro anticancer screen (SRB), breast cancer subpanel; details: 48 hours exposure; average percent growth over the cell lines
Description: as §1, §2, §3, §4

[6] = system: Ovarian Cancer cell lines; assay: NCI in vitro anticancer screen (SRB), ovarian cancer subpanel; details: 48 hours exposure; average percent growth over the cell lines
[7] = system: Prostate Cancer cell lines; assay: NCI in vitro anticancer screen (SRB), prostate cancer subpanel; details: 48 hours exposure; average percent growth over the cell lines
[8] = system: Non-Small Cell Lung Cancer cell lines; assay: NCI in vitro anticancer screen (SRB), non-small cell lung cancer subpanel; details: for Activity (Average PG for highest dose tested) Non-Small Cell Lung Cancer: 48 hours exposure, average percent growth over the cell lines
Description: as §1, §2, §3, §4, §5, §6

L. major = L. major footpad infection in Balb/c mice; assay type: in vivo; details: 80 mg/kg/day intraperitoneally in corn oil for seven days
Description: Compound 1 dissolved in corn oil was administered intraperitoneally to Balb/c mice (Ball State University colony) at 80 mg/kg/day for seven days beginning one day prior to injection of 5×10^6 L. major promastigotes in medium 199 in the hind foot. Control mice received an equivalent amount of corn oil and L. major. Beginning on day 8, the thickness of the footpads top to bottom was measured using a vernier caliper. Footpad swelling indicates progression of the disease. The percent increase in footpad size was calculated as: [formula]
The percent increase in footpad size is for triplicate mice in the control group and duplicate mice in the treated group.

[9] = Solubility in dosing vehicle; assay type: physicochemical; details: 10 percent emulphor 620 in Dulbecco's phosphate buffered saline
Description: CY was dissolved in isotonic saline, 20 and 21 were dissolved in corn oil, and 1 was dissolved in 10 percent emulphor 620 in Dulbecco's phosphate buffered saline. […] Starting 1 day after tumor implantation, drugs were administered interperitoneally (IP) at the doses given in Table X. CY and compounds 20 and 21 were given once daily for 8 days. Compound 1 was administered in three doses per day at lower dose levels, and the animals were treated for 7 days. On day 10, tumor masses, percent inhibition of tumor growth, and weight changes were determined.

[10] = system: K/1-NRKE tumor (ras^K-transformed NRKE cells)
[11] = system: K/1 = ras^K Transformed NRKE Cells; assay: cells; details: Rattus norvegicus
[12] = system: H/1.2 = ras^H Transformed NRKE Cells; assay: cells; details: Rattus norvegicus
[13] = system: 3LL = Lewis Lung Carcinoma Cells; assay: cells; details: Mus musculus
[14] = NCI toxicity studies, maximum tolerated dose; details: mouse, in vivo; mice
Description: As a result of its performance in an initial and a repeat cancer screen, compound 55 has been selected for in vivo testing. Compound 55 was chosen primarily because of its selectivity for non-small cell lung cancer. To date, toxicity studies have been performed, and the maximum tolerated dose in mice has been determined to be 400 mg/kg.

[15] = system: N/4.2-NRKE transformed by the human ras^N gene; assay: cells; details: N42, read-out: LC50 N/4.2
[16] = 120 h, read-out: LC50 3LL, Table VII, concentration giving 50% cell kill, 5 days exposure
[17] = read-out: LC50 3LL, second table headed TABLE VIII

Structure (SMILES) | Differential Index K/1 [1] | Differential Index H/1.2 [2] | Differential Index N/4.2 [3] | Differential Index 3LL [4] | Activity (Average PG for highest dose tested) Leukemia (Leukemia cell lines) | Activity (Average PG for highest dose tested) Melanoma (Melanoma cell lines) | Activity (Average PG for highest dose tested) CNS Cancer (CNS Cancer cell lines) | Activity (Average PG for highest dose tested) Colon Cancer (Colon Cancer cell lines) | Activity (Average PG for highest dose tested) Renal Cancer (Renal Cancer cell lines) | Activity (Average PG for highest dose tested) Breast Cancer (Breast Cancer cell lines) | Activity (Average PG for highest dose tested) Ovarian Cancer [6] | Activity (Average PG for highest dose tested) Prostate Cancer [7] | Activity (Average PG for highest dose tested) Non-Small Cell Lung Cancer [8] | CC50 [13, 16] [nM] | CC50 ([13]; read-out: LC50 3LL, Table VIII) [nM] | CC50 [13, 17] [nM] | further results
COC(=O)c1nc(-c2ccc3c(n2)C(=O)C(N)=C(Cl)C3=O)c2[nH]c3ccccc3c2c1C [Compound 58, 6-Chlorolavendamycin methyl ester] | 1.40 | 1.07 | 1.09 | 0.54 | −14.6% | −86.1% | −52.2% | −84.9% | −73.7% | −58.7% | −39.3% | −63.0% | −69.3% | – | – | – | Total Score [5]: 14
COC(=O)c1nc(-c2ccc3c(n2)C(=O)C(NC(C)=O)=CC3=O)c2[nH]c3ccccc3c2c1C [Compound 1, 7-N-Acetyllavendamycin Methyl Ester] | – | – | – | – | +36.3% | +80.3% | +60.2% | +80.0% | +63.0% | +47.9% | +70.0% | +89.5% | +42.6% | > 33000 | < 33000 | > 33000 | adverse effect of administration as measured by weight loss (in words) (L. major): did not. appear to be adversely affected; solubility in vehicle (in words) [9]: poorly soluble; selective toxicity against ras^K oncogene bearing tumor cells as compared to the normal, non-transformed cells ([1]; LC50 NRKE divided by LC50 K/1): 9 fold; CC50 ([1]; rat, 5 days): 100 nM; Number Dead Number Treated ([10]; 10 Mg/Kg/Day IP in three doses per day for 7 days): 0/7; Number Dead Number Treated ([10]; 30 Mg/Kg/Day IP in three doses per day for 7 days): 0/7; Number Dead Number Treated ([10]; 100 Mg/Kg/Day IP in three doses per day for 7 days): 0/7; toxicity in tumor-bearing nude mice (in words) ([10]; mouse, in vivo): little or no toxicity; tumor growth inhibition in vivo (in words) ([10]; summary of Table X): excellent tumor growth inhibition; CC50 ([11]; 120 h, read-out: LC50 K/1): 100 nM; CC50 ([11]; read-out: LC50 K/1): 100 nM; CC50 ([12]; 120 h, read-out: LC50 H/1.2): 700 nM; CC50 ([12]; read-out: LC50 H/1.2): 700 nM; CC50 at 5 days (in vitro; rat, LC50 NRKE): 900 nM
COC(=O)c1nc(-c2ccc3c(n2)C(=O)C(N)=CC3=O)c2[nH]c3ccccc3c2c1C [Compound 55, lavendamycin methyl ester, reference compound] | 3.33 | 0.9 | 1.67 | 0.4 | +30.0% | −53.0% | −39.3% | −20.0% | −63.8% | −43.8% | −43.5% | −31.0% | −60.8% | 500 | 500 | 500 | MTD [14]: 400 mg/kg; selective toxicity (Table IX) ([1]; ras^K cells versus normal cells): 0.5; CC50 ([11]; 120 h, read-out: LC50 K/1, Table VII, concentration giving 50% cell kill, 5 days exposure): 200 nM; CC50 ([11]; read-out: LC50 K/1, Table VIII): 200 nM; CC50 ([11]; read-out: LC50 K/1, Table XV (Example 51)): 30 nM; CC50 ([11]; read-out: LC50 K/1, second table headed TABLE VIII): 200 nM; CC50 ([12]; 120 h, read-out: LC50 H/1.2, Table VII, concentration giving 50% cell kill, 5 days exposure): 100 nM; CC50 ([12]; read-out: LC50 H/1.2, Table VIII): 100 nM; CC50 ([12]; read-out: LC50 H/1.2, Table XV (Example 51)): 110 nM; CC50 ([12]; read-out: LC50 H/1.2, second table headed TABLE VIII): 100 nM; CC50 [15]: 60 nM; CC50 ([13]; read-out: LC50 3LL, Table XV (Example 51)): 250 nM; CC50 at 5 days (in vitro): 100 nM; Selectivity: sensitivity of one of the seven non-small cell lung cancer cell lines relative to average sensitivity of the fifty-five cell lines ([8]; at GI50, TGI and/or LC50): ~100 times more sensitive to compound 55 than the

Reference: US6444684B1 (priority 1993, dated 2002)
